Measured values taken from patent US7772241B2, “Variolin derivatives and their use as antitumor agents” (Pharma Mar S.A., priority 2001, dated 2010).

How the values were obtained:
HT-29 = test: Inhibition of cells growth by colorimetric (SRB) assay, HT-29; conditions: for GI50 / CC50: Homo sapiens, HT-29, 48 h; for GI50: read-out: GI50 HT-29, SRB assay, 48 hours exposure; for CC50: read-out: LC50 HT-29, SRB assay, 48 hours exposure; for TGI HT-29: SRB assay, 48 hours exposure
Description: (§1) The finality of these assays is to interrupt the growth of a “in vitro” tumor cell culture by means a continued exhibition of the cells to the sample to be testing.
(§2) This form of the assay employs 96 well cell culture microplates of 9 mm diameter (Faircloth, 1988; Mosmann, 1983). Most of the cell lines are obtained from American Type Culture Collection (ATCC) derived from different human cancer types.
(§3) Cells are maintained in RPMI 1640 10% FBS, supplemented with 0.1 g/l penicillin and 0.1 g/l streptomycin sulphate and then incubated at 37° C., 5% CO2 and 98% humidity. For the experiments, cells were harvested from subconfluent cultures using trypsin and resuspended in fresh medium before plating.
(§4) Cells are seeded in 96 well microtiter plates, at 5×10^3 cells per well in aliquots of 195 μl medium, and they are allowed to attach to the plate surface by growing in drug free medium for 18 hours. Afterward, samples are added in aliquots of 5 μl in a ranging from 10 to 10^−8 μg/ml, dissolved in DMSO/EtOH/PBS (0.5:0.5:99). After 48 hours exposure, the antitumor effect are measured by the SRB methodology: cells are fixed by adding 50 μl of cold 50% (wt/vol) trichloroacetic acid (TCA) and incubating for 60 minutes at 4° C. Plates are washed with deionized water and dried. One hundred μl of SRB solution (0.4% wt/vol in 1% acetic acid) is added to each microtiter well and incubated for 10 minutes at room temperature. Unbound SRB is removed by washing with 1% acetic acid. Plates are air dried and bound stain is solubilized with Tris buffer. Optical densities are read on a automated spectrophotometric plate reader at a single wavelength of 490 nm.
(§5) The values for mean +/−SD of data from triplicate wells are calculated. Some parameters for cellular responses can be calculated: GI=growth inhibition, TGI=total growth inhibition (cytostatic effect) and LC=cell killing (cytotoxic effect).

IGROV-1 = test: Inhibition of cells growth by colorimetric (SRB) assay, IGROV-1; conditions: for GI50 / CC50: Homo sapiens, IGROV-1, 48 h; for GI50: read-out: GI50 IGROV, SRB assay, 48 hours exposure; for CC50: read-out: LC50 IGROV, SRB assay, 48 hours exposure; for TGI IGROV: SRB assay, 48 hours exposure
Description: as §1, §2, §3, §4, §5

SK-OV-3 = test: Inhibition of cells growth by colorimetric (SRB) assay, SK-OV-3; conditions: for GI50 / CC50: Homo sapiens, SK-OV-3, 48 h; for GI50: read-out: GI50 SKOV-3, SRB assay, 48 hours exposure; for CC50: read-out: LC50 SKOV-3, SRB assay, 48 hours exposure; for TGI SKOV-3: SRB assay, 48 hours exposure
Description: as §1, §2, §3, §4, §5

LNCaP = test: Inhibition of cells growth by colorimetric (SRB) assay, LNCaP; conditions: for GI50 / CC50: Homo sapiens, LNCaP, 48 h; for GI50: read-out: GI50 LN-caP, SRB assay, 48 hours exposure; for CC50: read-out: LC50 LN-caP, SRB assay, 48 hours exposure; for TGI LN-caP: SRB assay, 48 hours exposure
Description: as §1, §2, §3, §4, §5

IGROV-ET = test: Inhibition of cells growth by colorimetric (SRB) assay, IGROV-ET; conditions: for GI50 / CC50: Homo sapiens, 48 h; for GI50: read-out: GI50 IGROV-ET, SRB assay, 48 hours exposure; for CC50: read-out: LC50 IGROV-ET, SRB assay, 48 hours exposure; for TGI IGROV-ET: SRB assay, 48 hours exposure
Description: as §1, §2, §3, §4, §5

DU-145 = test: Inhibition of cells growth by colorimetric (SRB) assay, DU-145; conditions: for GI50 / CC50: Homo sapiens, DU-145, 48 h; for GI50: read-out: GI50 DU-145, SRB assay, 48 hours exposure; for CC50: read-out: LC50 DU-145, SRB assay, 48 hours exposure; for TGI DU-145: SRB assay, 48 hours exposure
Description: as §1, §2, §3, §4, §5

K-562 = test: Inhibition of cells growth by colorimetric (SRB) assay, K-562; conditions: for GI50 / CC50: Homo sapiens, K562, 48 h; for GI50: read-out: GI50 K-562, SRB assay, 48 hours exposure; for CC50: read-out: LC50 K-562, SRB assay, 48 hours exposure; for TGI K-562: SRB assay, 48 hours exposure
Description: as §1, §2, §3, §4, §5

LoVo-Dox = test: Inhibition of cells growth by colorimetric (SRB) assay, LoVo-Dox; conditions: for GI50 / CC50: Homo sapiens, 48 h; for GI50: read-out: GI50 LOVO-DOX, SRB assay, 48 hours exposure; for CC50: read-out: LC50 LOVO-DOX, SRB assay, 48 hours exposure; for TGI LOVO-DOX: SRB assay, 48 hours exposure
Description: as §1, §2, §3, §4, §5

LoVo = test: Inhibition of cells growth by colorimetric (SRB) assay, LoVo; conditions: for GI50 / CC50: Homo sapiens, LoVo, 48 h; for GI50: read-out: GI50 LOVO, SRB assay, 48 hours exposure; for CC50: read-out: LC50 LOVO, SRB assay, 48 hours exposure; for TGI LOVO: SRB assay, 48 hours exposure
Description: as §1, §2, §3, §4, §5

SK-MEL-28 = test: Inhibition of cells growth by colorimetric (SRB) assay, SK-MEL-28; conditions: for GI50 / CC50: Homo sapiens, SK-MEL-28, 48 h; for GI50: read-out: GI50 MEL-28, SRB assay, 48 hours exposure; for CC50: read-out: LC50 MEL-28, SRB assay, 48 hours exposure; for TGI MEL-28: SRB assay, 48 hours exposure
Description: as §1, §2, §3, §4, §5

PANC-1 = test: Inhibition of cells growth by colorimetric (SRB) assay, PANC-1; conditions: for GI50 / CC50: Homo sapiens, PANC-1, 48 h; for GI50: read-out: GI50 PANC-1, SRB assay, 48 hours exposure; for CC50: read-out: LC50 PANC-1, SRB assay, 48 hours exposure; for TGI PANC-1: SRB assay, 48 hours exposure
Description: as §1, §2, §3, §4, §5

A-549 = test: Inhibition of cells growth by colorimetric (SRB) assay, A-549; conditions: for GI50 / CC50: Homo sapiens, A549, 48 h; for GI50: read-out: GI50 A-549, SRB assay, 48 hours exposure; for CC50: read-out: LC50 A-549, SRB assay, 48 hours exposure; for TGI A-549: SRB assay, 48 hours exposure
Description: as §1, §2, §3, §4, §5

Structure (SMILES) | GI50 (HT-29) [µM] | CC50 (HT-29) [µM] | TGI HT-29 (HT-29) | GI50 (IGROV-1) [µM] | CC50 (IGROV-1) [µM] | TGI IGROV (IGROV-1) | GI50 (SK-OV-3) [µM] | CC50 (SK-OV-3) [µM] | TGI SKOV-3 (SK-OV-3) | GI50 (LNCaP) [µM] | CC50 (LNCaP) [µM] | TGI LN-caP (LNCaP) | GI50 (IGROV-ET) [µM] | CC50 (IGROV-ET) [µM] | TGI IGROV-ET (IGROV-ET) | GI50 (DU-145) [µM] | CC50 (DU-145) [µM] | TGI DU-145 (DU-145) | GI50 (K-562) [µM] | CC50 (K-562) [µM] | other results
CC(C)c1c2cccnc2n2c(N)nccc12 [Compound 66] | 17.9 | ≥ 44.2 | 4.42E−05 | 9.99 | 30.4 | 1.74E−05 | 15.7 | ≥ 44.2 | 3.04E−05 | 12.5 | ≥ 44.2 | 2.55E−05 | 9.81 | 39.8 | 1.98E−05 | 10 | ≥ 44.2 | 2.59E−05 | 21.6 | ≥ 44.2 | TGI K-562 (K-562): 4.42E−05; GI50 (LoVo-Dox): 2.22 µM; CC50 (LoVo-Dox): ≥ 44.2 µM; TGI LOVO-DOX (LoVo-Dox): 4.42E−05; GI50 (LoVo): 17.1 µM; CC50 (LoVo): ≥ 44.2 µM; TGI LOVO (LoVo): 4.42E−05; GI50 (SK-MEL-28): 8.84 µM; CC50 (SK-MEL-28): 39.6 µM; TGI MEL-28 (SK-MEL-28): 1.87E−05; GI50 (PANC-1): 8 µM; CC50 (PANC-1): ≥ 44.2 µM; TGI PANC-1 (PANC-1): 2.16E−05; GI50 (A-549): 16.1 µM; CC50 (A-549): ≥ 44.2 µM; TGI A-549 (A-549): 4.42E−05
Cl.Nc1nccc2c(-c3ccncn3)c3cccnc3n12 [Compound 71] | 1.1 | 33.5 | 3.35E−06 | 0.797 | 4.15 | 1.65E−06 | 1.06 | 33.5 | 3.00E−06 | 0.0502 | 1.82 | 2.15E−07 | 1.04 | 31.9 | 2.75E−06 | 0.75 | 33.5 | 2.31E−06 | 1.7 | 33.5 | TGI K-562 (K-562): 1.30E−05; GI50 (LoVo-Dox): 0.465 µM; CC50 (LoVo-Dox): 33.5 µM; TGI LOVO-DOX (LoVo-Dox): 1.79E−06; GI50 (LoVo): 0.318 µM; CC50 (LoVo): 33.5 µM; TGI LOVO (LoVo): 1.84E−06; GI50 (SK-MEL-28): 0.556 µM; CC50 (SK-MEL-28): 2.5 µM; TGI MEL-28 (SK-MEL-28): 1.18E−06; GI50 (PANC-1): 1.07 µM; CC50 (PANC-1): 33.5 µM; TGI PANC-1 (PANC-1): 3.78E−06; GI50 (A-549): 1.1 µM; CC50 (A-549): 11.2 µM; TGI A-549 (A-549): 2.70E−06
Nc1nccc2c(-c3ccnc(O)n3)c3cccnc3n12 [Compound 80] | 2.45 | 35.9 | 3.59E−05 | 1.55 | 24.8 | 3.26E−06 | 12.5 | 35.9 | 3.45E−05 | 0.97 | 2.79 | 1.65E−06 | 2.48 | 35.9 | 9.45E−06 | 1.81 | 35.9 | 8.70E−06 | 9.88 | 35.9 | TGI K-562 (K-562): 3.59E−05; GI50 (LoVo-Dox): 4.2 µM; CC50 (LoVo-Dox): 35.9 µM; TGI LOVO-DOX (LoVo-Dox): 2.01E−05; GI50 (LoVo): 4.06 µM; CC50 (LoVo): 35.9 µM; TGI LOVO (LoVo): 1.48E−05; GI50 (SK-MEL-28): 2.42 µM; CC50 (SK-MEL-28): 19.7 µM; TGI MEL-28 (SK-MEL-28): 7.08E−06; GI50 (PANC-1): 8.41 µM; CC50 (PANC-1): 35.9 µM; TGI PANC-1 (PANC-1): 2.42E−05; GI50 (A-549): 7.73 µM; CC50 (A-549): 32.7 µM; TGI A-549 (A-549): 1.59E−05
